This is an account of results in US12121521B2, “Uses of salt-inducible kinase (SIK) inhibitors for treating osteoporosis” (The General Hospital Corporation, priority 2016, dated 2024).

Data set [1] has as its system M-CSF+RANKL-primed osteoclastogenesis. In words: Osteoclast differentiation of bone marrow-derived macrophages (TRAP). It counts as cell-based, murine. Conditions: in vitro; read-out: IC50 of inhibition of M-CSF+RANKL-primed osteoclastogenesis. The procedure: Static and dynamic histomorphometry was performed (see FIG. 24). […] Effects on osteoclast differentiation were assessed by TRAP secretion assays and counting multi-nucleated TRAP-positive cells (see FIG. 26). M-CSF signaling in primary macrophages, was assessed by immunoblotting for MCSF-receptor Y723 phosphorylation and ERK1/2 phosphorylation (see FIG. 27).

The test system of data set [2] is oophorectomized (OVX) female C57B/6 mice. In words: OVX mice: micro-CT, histomorphometry, bone turnover markers. In kind it is in vivo, mouse. On the procedure:
Assessment of bone morphology and microarchitecture was performed with high-resolution micro-computed tomography (pCT40; Scanco Medical, Brüttisellen, Switzerland). In brief, the distal femoral metaphysis and mid-diaphysis were scanned using 70 kVp peak x-ray tube potential, 113 mAs x-ray tube current, 200 ms integration time, and 10-μm isotropic voxel size. Cancellous bone was assessed in the distal metaphysis and cortical bone was assessed in the mid-diaphysis. The femoral metaphysis region began 1700 μm proximal to the distal growth plate and extended 1500 μm distally. Cancellous bone was separated from cortical bone with a semiautomated contouring program. For the cancellous bone region, bone volume fraction (BV/TV, %), trabecular thickness (Tb.Th, mm), trabecular separation (Tb.Sp, mm), trabecular number (Tb.N, 1/mm), connectivity density (Conn.D or ConnD, 1/mm^3), and structure model index (SMI) were assessed. Transverse CT slices were also acquired in a 500 μm long region at the femoral mid-diaphysis to assess total cross-sectional area, cortical bone area, and medullary area (Tt.Ar, Ct.Ar, and Ma.Ar, respectively, all mm^2); bone area fraction (Ct.Ar/Tt.Ar, %), cortical thickness (Ct.Th, mm), porosity (Ct.Po, %) and minimum (Imin, mm^4), maximum (Imax, mm^4), and polar (J, mm^4) moments of inertia. Bone was segmented from soft tissue using the same threshold, 300 mg HA/cm^3 for trabecular and 733 mg HA/cm^3 for cortical bone. Scanning and analyses adhered to the guidelines for the use of micro-CT for the assessment of bone architecture in rodents (74). For the primary spongiosa region (where intermittent PTH treatment has its predominant effect) analyzed in FIG. 13A, coronal CT slices were evaluated in a 500 μm (50 slices) region located centrally in the bone. […] The primary spongiosa bone region was identified by semi-manually contouring the region of interest. Images were thresholded using an adaptive-iterative algorithm. The average adaptive-iterative threshold of control mice (WT, vehicle treated) for the region of interest (299 mgHA/cm^3) were then used to segment bone from soft tissue for all distal femur images. Micro-CT analysis was done based on sample numbers in a completely blinded manner.
Right tibia from 8-week-old mice were subjected to bone histomorphometric analysis. […] The structural, dynamic and cellular parameters were calculated and expressed according to the standardized nomenclature (75).
48 female C57B/6 mice were subjected to sham surgery (SHAM; n=24) or oophorectomy (n=24) at 12 weeks of age. […] The mice were assessed by micro-CT (μ-CT) of the femur and L5 vertebrae, and static/dynamic histomorphometry of the tibia.

Data set [3] in a line: In vivo toxicity experiments (weight, CBC, serum chemistry). Details: species or system mouse. The source says:
Blood was obtained for the complete blood count (CBC) measurement, and serum was obtained for the glucose, blood urea nitrogen (BUN), cholesterol, triglycerides, ALT, Creatine kinase (CK), amylase, and total protein measurements. […] “WBC” refers to “white blood cell”. “Hgb” refers to “hemoglobin”. “Pit” refers to “platelet”.

The target in a further data set is tyrosine kinase Src (Homo sapiens, UniProt P12931). The following applies: cited from earlier work.
Sequence of tyrosine kinase Src (P12931 whole entry): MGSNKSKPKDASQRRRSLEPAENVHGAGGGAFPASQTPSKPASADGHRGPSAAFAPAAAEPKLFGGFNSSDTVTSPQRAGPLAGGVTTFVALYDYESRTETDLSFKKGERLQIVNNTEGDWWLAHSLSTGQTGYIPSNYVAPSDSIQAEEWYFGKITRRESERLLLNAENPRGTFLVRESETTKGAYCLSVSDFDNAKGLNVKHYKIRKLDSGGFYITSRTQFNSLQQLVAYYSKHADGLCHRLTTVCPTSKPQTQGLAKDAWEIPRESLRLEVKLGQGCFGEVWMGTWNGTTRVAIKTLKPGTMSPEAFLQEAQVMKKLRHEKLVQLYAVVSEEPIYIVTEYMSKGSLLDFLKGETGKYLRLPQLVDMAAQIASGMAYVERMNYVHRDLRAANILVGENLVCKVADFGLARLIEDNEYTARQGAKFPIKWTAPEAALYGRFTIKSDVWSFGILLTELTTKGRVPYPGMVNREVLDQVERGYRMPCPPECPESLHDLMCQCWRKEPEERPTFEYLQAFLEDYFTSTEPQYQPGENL
For a further data set, the system named is Ocy454 cells. In words: cAMP radioimmunoassay. It counts as cell-based, mouse. The following applies: 20 minutes; FIG. 14B. On the procedure: Cells, in 96 well plates, were treated with indicated ligands for 20 minutes at room temperature in the presence of the phosphodiesterase inhibitor 3-isobutyl-1-methylxanthine (IBMX, Sigma I5879, 2 mM). The medium was then removed and cells were lysed in 50 mM HCl and transferred to −80C. Thawed lysates were diluted 1:5 with dH2O, and an 10 μl aliquot was assessed for cAMP content by radioimmunoassay using ^125I-cAMP analog as a tracer and unlabeled cAMP to generate a standard curve.

Each structure is given as a SMILES string. “Also recorded” adds a separate entry of the source.

What is called IC50 is the point on the concentration scale where inhibition reaches its midpoint. For the compound `COc1ccc(N2C(=O)N(c3c(C)cccc3Cl)Cc3cnc(Nc4ccc(C5CCN(C)CC5)cc4OC)nc32)nc1` [YKL-05-099], the IC50 in data set [1] was 52 nM. Also, in data set [2] (FIG. 32A), the osteoblast numbers result is recorded as “increased osteoblast numbers”. In data set [2] (FIG. 32C), the “osteoclast activity / eroded surfaces” value was “reduced eroded surfaces”. For the same compound, the bone formation rate entry in data set [2] (FIG. 33C) is on record as “increased”. For the same compound, in data set [2] (distal femur and L5 vertebrae), the trabecular bone mass result was “increased trabecular bone mass at both skeletal sites”. In addition, the “growth or peripheral blood counts” value in data set [3] (4 week treatment) is listed as “Neither PTH nor YKL-05-099 altered growth or peripheral blood counts”. In addition, the weight gain result in data set [3] (4 week treatment (weeks 20-24)) is “normal weight gain”. Also, in data set [3] (4 week treatment, FIGS. 36A to 36D), the “toxicity judged from hematology data” value was “not toxic under the test conditions”. Further, at tyrosine kinase Src, the “inhibition of the tyrosine kinase Src” value is recorded as “known to inhibit the tyrosine kinase Src”.

On to `COc1ccc(N2C(=O)N(c3c(C)cccc3C)Cc3cnc(Nc4ccc(C5CCN(C)CC5)c(OC)c4)nc32)c(OC)c1` [YKL-05-093], for which the cAMP levels result with Ocy454 cells was “does not induce cAMP generation; also recorded: without increasing cAMP levels”.
